From PubChem BioAssay AID1626 (SRMLSC, 2009)

Tested on: M. tuberculosis H37Rv growth inhibition
Assay: M. tuberculosis H37Rv growth inhibitors, H37Rv strain (AID 1626)
Conditions: for IC90: measured here: IC90 against H37Rv; for CC50: measured here: Vero cell cytotoxicity

Row | Structure (SMILES) | IC50 [µM] | IC90 [µM] | CC50 [µM]
1 | Cc1ccc(Nc2nc(N3CCN(C)CC3)nc(N)c2[N+](=O)[O-])cc1C | 9.67 | 14.5 | 
2 | CCCCn1c(=O)c(C(=O)Nc2nnc(C(C)C)s2)c(O)c2ccccc21 | 0.767 | 0.841 | > 40
3 | COC(=O)CCCC(=O)Nc1ccc(Cl)c(Cl)c1 | 23.1 | > 100 | 
4 | COc1ccc(-c2nc(CN3CCCCC3c3nccn3C)c(C)o2)c(C)c1C (configuration not stated) | 18.1 | 40.9 | 22
5 | Oc1cccc2ccc(/C=C/c3cccs3)nc12 | 1.49 | 4.51 | > 40
6 | COc1cccc(-c2nnc(NC(=O)c3ccccc3Br)o2)c1 | 3.79 | 9.35 | > 40
7 | CC(C)c1ccc(Nc2nc(NCc3ccco3)nc(N3CCOCC3)n2)cc1 | 4.99 | 8.29 | 34.6
8 | CCOc1ccc(NC(=O)Nc2ccccc2SC)cc1 |  |  | > 40
9 | O=c1cc(-c2ccccc2)nc(N2CCN(Cc3ccc4c(c3)OCO4)CC2)[nH]1 | 89 | > 100 | 
10 | O=C(Cc1cccs1)Nc1cccc(-c2nc3cc4ccccc4cc3[nH]2)c1 | 15.5 | 24.3 | 21
11 | Cc1ccc(-c2noc(-c3cc4ccccc4oc3=O)n2)cc1 | 1.5 | > 100 | 
12 | O=C(CSCC(=O)NC1CC1)Nc1ccc2ccccc2c1 | 5.37 | > 100 | 
13 | CCCCCC(=O)Nc1ccc(-c2csc(C)n2)cc1 | 46 | > 100 | 
14 | Cc1nc(N2CCOCC2)c2c(C)c(C(=O)Nc3ccc(C(F)(F)F)cc3)sc2n1 |  |  | > 40
15 | O=C(/C=C/Nc1ccc(Oc2ccccc2Cl)cc1)c1ccco1 |  | > 100 | > 40
16 | Cc1ccc(S(=O)(=O)NC(=O)Nc2nc(-c3ccc(F)c(F)c3)cs2)cc1 | 6.15 | > 100 | 
17 | CC(C)C(=O)N1CCN(c2ccc(NC(=O)c3ccc4c(c3)OCCO4)cc2Cl)CC1 |  | > 100 | 19.8
18 | O=S(=O)(Nc1ccn(-c2ccccc2)n1)c1ccc(Br)cc1 | 30.1 | > 100 | 
19 | S=c1[nH]c2ccc3ccccc3c2[nH]1 | 23.7 | > 100 | > 40
20 | O=[N+]([O-])c1ccc(Sc2nnnn2-c2ccccc2)nc1 | 8.34 | 12.6 | 8.99
21 | Oc1cnn(-c2ccccc2)c1 |  | > 100 | 

Row | Structure (SMILES) | IC50 [µM] | IC90 [µM] | CC50 [µM]
22 | COc1ccc(-c2nsc(SCC(=O)NCC3CCCO3)n2)cc1 (configuration not stated) | 2.25 | 5.2 | 
23 | O=C(c1nnsc1S(=O)c1ccc(Cl)cc1)N1CCOCC1 (configuration not stated) | 8.91 | 10.8 | 14.4
24 | Cc1ccc(C(=O)Nc2nc(-c3ccccn3)cs2)o1 | 2.56 | 6.19 | > 40
25 | COc1ccc(C2CC(=O)N3C(=C2C#N)SCC3(O)c2ccccc2)cc1 (configuration not stated) | 7 | 12 | > 40
26 | CC(C)Cn1c(N)c(C(=O)COC(=O)c2cnc(Cl)c(Cl)c2)c(=O)n(C)c1=O | 8.01 | 20.7 | > 40
27 | Cc1ccc(CNCc2cc3c(C(C)(C)C)nn(-c4ccccc4)c3[nH]c2=O)cc1 | 8.33 | 11 | > 40
28 | Cc1nc(N2CCN(Cc3ccc(Cl)cc3)CC2)c2oc3ccccc3c2n1 | 15.7 | 19.8 | > 40
29 | COc1ccccc1NC(CC(=O)c1ccccc1)C(=O)OCC(=O)c1ccc(Br)cc1 (configuration not stated) | 13.8 | 21.1 | 
30 | c1ccc(N2CCN(c3nc(-c4ccccn4)nc4ccccc34)CC2)cc1 | 0.924 | 1.62 | 25.9
31 | CC[n+]1c(/C=C2\Sc3ccccc3N2C)ccc2cccc(C)c21 | 1.01 | 1.4 | 2.41
32 | Cc1ccc2nc(N(CCCN(C)C)C(=O)c3ccc4c(c3)CCCC4)sc2c1 | 8.72 | 11.8 | 22.6
33 | CCOC(=O)c1ccc(NC(=O)c2n[nH]c(=O)c3ccccc23)cc1 |  | > 100 | 
34 | CCOC(=O)CSc1ncnc2c1cnn2-c1ccc(C)cc1C | 1.44 | 2.48 | 
35 | Cc1cc(-n2c(C)cc(C(=O)COc3ccc4ccc(=O)oc4c3)c2C)no1 | 8.15 | > 100 | > 40
36 | Brc1ccc(CSc2ncn[nH]2)cc1 | 46.2 | > 100 | > 40
37 | CCC(=O)Nc1nc2ccccc2n1Cc1ccc(Cl)cc1 | < 0.195 | > 100 | > 40
38 | O/N=C/c1ccc(-c2cc(Cl)ccc2Cl)o1 |  | > 100 | 
39 | COc1ccc(C(C(=O)NC2CCCCC2)N(C(=O)c2sc(C)nc2C)c2ccc(C(C)=O)cc2)cc1 (configuration not stated) | 65.5 | > 100 | 
40 | COc1ccc(Br)cc1C(C[N+](=O)[O-])c1c(N)n(C)c(=O)n(C)c1=O (configuration not stated) | 8.08 | 12.5 | 9.3
41 | Cc1sc2nc[nH]c(=S)c2c1-c1ccccc1 | 32.3 | > 100 | > 40
42 | Cc1ccc(-c2ccc(SCC(=O)Nc3nonc3C)nn2)cc1 | 1.79 | 3.88 | 

Row | Structure (SMILES) | IC50 [µM] | IC90 [µM] | CC50 [µM]
43 | COc1cccc(CNc2cnc3ccccc3c2)c1O | 28.6 | > 100 | 
44 | Cc1cc(Cl)n2ncc(-c3ccccc3)c2n1 | 58.1 | > 100 | > 40
45 | O=C(Nc1nc(-c2ccc(-c3ccccc3)cc2)cs1)c1cnccn1 |  | > 100 | > 40
46 | COc1ccccc1/C=C/C(=O)c1ccc(NC(C)=O)cc1 |  |  | 22.8
47 | CCN(CC)Cc1nc2c(c(=O)[nH]1)C1(CCCCC1)Cc1ccccc1-2 | 6.77 | > 100 | 
48 | CC(C)Oc1ccc(C(=O)Nc2ccc(Cl)c(S(=O)(=O)Nc3ccc(Cl)cc3)c2)cc1 | 11.6 | 22.4 | 28.9
49 | Cc1cc(=O)oc2cc(Oc3ncccc3[N+](=O)[O-])ccc12 | 9.46 | > 100 | 
50 | CCOc1ccc(N=C/C=C/c2ccccc2)c(O)c1 | 0.939 | 5.41 | 38
51 | COc1cccc2sc(Nc3nc(-c4ccccn4)cs3)nc12 | < 0.195 | < 0.195 | 1.92
52 | c1csc(Cc2nn3c(-c4n[nH]c5c4CCC5)nnc3s2)c1 | 0.412 | 11 | > 40
53 | COc1ccc(NC2(c3ccc(Cl)cc3)C(=O)c3ccccc3C2=O)cc1 |  | > 100 | 
54 | O=C(COC(=O)c1cccs1)c1ccc2c(c1)OCCO2 | 8.66 | 19.2 | 
55 | CCC(CO)[n+]1c(C)cc(/C=C2\Sc3ccccc3N2Cc2ccccc2)cc1C (configuration not stated) | 1.3 | 1.95 | 23.2
56 | CCOC(=O)C1CCCc2c1[nH]c1c(C(N)=O)cccc21 (configuration not stated) | 3.38 | 29.1 | 
57 | Cc1c([N+](=O)[O-])cc(C(=O)NCc2ccc(F)cc2)cc1[N+](=O)[O-] | < 0.195 | > 100 | 
58 | Cc1ccc(NC(=O)CSCC#N)cc1Cl | 47.5 | > 100 | 
59 | COc1ccc(N2CSC3=C(C#N)C(c4cccc(OC)c4OC)CC(=O)N3C2)cc1 (configuration not stated) | 54.7 | > 100 | 
60 | CCOc1ccc(NC(=O)N(C2CCCCC2)C2CCN(C(C)=O)CC2)cc1 |  | > 100 | 
61 | COC(=O)C(CC(C)C)NC(=O)/C=C/c1ccccc1Cl (configuration not stated) | 4.67 | 7.81 | 
